pIC50: −log10 of the molar value. Active and inactive are the calls of the source. The rule behind the calls is not given here.
What was measured:
HeLa [1] = assay: Cytotoxicity against human HeLa cells after 72 hrs by MTT assay; assay type: functional, cell-based
Jurkat = assay: Cytotoxicity against human Jurkat cells after 72 hrs by MTT assay; assay type: functional, cell-based
K562 [2] = assay: Ratio of tiazofurin IC50 to compound IC50 for human K562 cells; assay type: functional
Raji = assay: Cytotoxicity against human Raji cells after 72 hrs by MTT assay; assay type: functional, cell-based
HL-60 [3] = assay: Cytotoxicity against human HL60 cells after 72 hrs by MTT assay; assay type: functional, cell-based; settings: HL-60, 72 h
MRC5 = assay: Cytotoxicity against human MRC5 cells after 72 hrs by MTT assay; assay type: cell-based; settings: MRC5, 72 h
K562 [4] = assay: Cytotoxicity against human K562 cells after 72 hrs by MTT assay; assay type: functional, cell-based; settings: K562, 72 h
HL-60 [5] = assay: Ratio of tiazofurin IC50 to compound IC50 for human HL60 cells; assay type: functional
HeLa [6] = assay: Ratio of tiazofurin IC50 to compound IC50 for human HeLa cells; assay type: functional
MDA-MB-231 = assay: Cytotoxicity against human MDA-MB-231 cells; assay type: functional, cell-based
MCF7 = assay: Cytotoxicity against human MCF7 cells; assay type: functional, cell-based
HT-29 = assay: Cytotoxicity against human HT-29 cells; assay type: functional, cell-based
K562 [7] = assay: Induction of apoptosis in human K562 cells assessed as apoptotic cells at IC50 concentration after 72 hrs by AnnexinV staining-based flow cytometric analysis relative to tiazofurin; assay type: functional
K562 [8] = assay: Cytotoxicity against human K562 cells after 72 hrs by SRB assay; assay type: functional, cell-based; settings: K562, 72 h
K562 [9] = assay: Induction of apoptosis in human K562 cells at IC50 concentration after 24 hrs by AnnexinV staining-based flow cytometric analysis; assay type: functional, cell-based
K562 [10] = assay: Cytotoxicity against human K562 cells after 72 hrs by DET assay; assay type: functional, cell-based; settings: K562, 72 h

SMILES | pIC50 (HeLa [1]) | pIC50 (Jurkat) | Ratio IC50 (K562 [2]) | pIC50 (Raji) | pIC50 (HL-60 [3]) | pIC50 (MRC5) | pIC50 (K562 [4]) | Ratio IC50 (HL-60 [5]) | Ratio IC50 (HeLa [6]) | pIC50 (MDA-MB-231) | pIC50 (MCF7) | pIC50 (HT-29) | fold change (FC) (K562 [7]) | Activity (MDA-MB-231) | pIC50 (K562 [8]) | Activity (MCF7) | Activity (HT-29) | Activity (K562 [9]) | pIC50 (K562 [10])
C[C@]1(c2nc(C(N)=O)cs2)O[C@H]2O[C@H](CO)[C@H](O)[C@H]2O1 | 6.19 | 6.19 | 100 | 5.25 | 6.47 | < 4.00 | 7.70 |  |  |  |  |  |  |  |  |  |  |  | 
C[C@@]1(c2nc(C(N)=O)cs2)O[C@H]2O[C@H](CO)[C@H](O)[C@H]2O1 | 7.22 | 6.23 |  | 5.58 | 7.30 | < 4.00 | 7.00 | 4 | 64 |  |  |  |  |  |  |  |  |  | 
NC(=O)c1csc([C@@H]2O[C@H](CO)[C@@H](O)[C@H]2O)n1 [TIAZOFURIN] | 5.42 | 7.40 |  | 5.28 | 6.72 | 6.44 | 5.68 |  |  | 6.59 | 6.59 | 6.59 |  |  |  |  |  |  | 
NC(=O)c1csc([C@@H]2O[C@H](CO)[C@H](O)[C@H]2O)n1 | 7.10 | 6.28 |  | 5.51 | 6.89 | < 4.00 | 6.82 |  | 48 |  |  |  | 7 | inactive | 6.38 | inactive | inactive | Active | 7.00
